In patent US20170056336A1, “CO-TARGETING ANDROGEN RECEPTOR SPLICE VARIANTS AND MTOR SIGNALING PATHWAY FOR THE TREATMENT OF CASTRATION-RESISTANT PROSTATE CANCER” (British Columbia Cancer Agency Branch, priority 2015, published 2017):

Assays:
AR NTD = target: T1, AR NTD (Homo sapiens, UniProt P10275); test: AR NTD transactivation assay in LNCaP cells; type: cell-based; settings: IL-6 50 ng/ml, 24 h
T1 sequence (P10275 1-558): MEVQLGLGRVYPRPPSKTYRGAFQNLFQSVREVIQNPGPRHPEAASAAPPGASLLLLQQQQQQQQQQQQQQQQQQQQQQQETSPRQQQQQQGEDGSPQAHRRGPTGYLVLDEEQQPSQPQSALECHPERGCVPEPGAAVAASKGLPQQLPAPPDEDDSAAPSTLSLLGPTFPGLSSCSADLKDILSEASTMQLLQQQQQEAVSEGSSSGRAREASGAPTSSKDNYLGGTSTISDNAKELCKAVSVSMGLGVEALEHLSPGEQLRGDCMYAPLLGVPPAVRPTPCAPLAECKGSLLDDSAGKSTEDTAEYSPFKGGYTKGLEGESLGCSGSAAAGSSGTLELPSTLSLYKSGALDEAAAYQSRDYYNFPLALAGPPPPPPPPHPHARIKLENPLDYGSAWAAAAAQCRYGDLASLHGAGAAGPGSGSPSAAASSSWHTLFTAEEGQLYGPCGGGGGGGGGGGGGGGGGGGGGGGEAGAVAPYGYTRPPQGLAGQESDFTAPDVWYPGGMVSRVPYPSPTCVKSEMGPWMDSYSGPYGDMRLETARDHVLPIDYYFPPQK
Experimental: Transactivation assays of the AR NTD were performed in LNCaP and LNCaP95 cells cotransfected with p5xGal4UAS-TATA-luciferase and AR NTD-Gal4DBD (FIG. 2D). […] LNCaP95 cells were harvested 24 h after the treatment of indicated compounds.
The AR NTD is essential for full transcriptional activities (Quayle, S. N. et. al., PNAS 2007, 104, 1331-1336). In LNCaP cells, transactivation of the AR NTD can be induced with IL-6 or by stimulation of the PKA pathway with FSK. In LNCaP95 cells, there is high intrinsic activity of the AR NTD which cannot be further induced by stimulation of these pathways.

LNCaP95 xenografts [1] = test: Western blot analyses of protein lysates from xenografts; type: in vivo, mice
LNCaP95 cells = test: Cell proliferation BrdU immunoassay; type: cell-based, human; settings: R1881 0.1 nM, 48 h, serum-free, Compound A 25 uM, enzalutamide 10 uM, BEZ-235 15 nM, everolimus 10 nM
AR = target: T2, AR (Homo sapiens, UniProt P10275, T878A); test: PSA-, ARR3-, PB-luciferase AR reporter assay in LNCaP95 cells; settings: LNCaP95 cells treated with androgen and BEZ-235 15 nM
T2 sequence (P10275 1-920 T878A): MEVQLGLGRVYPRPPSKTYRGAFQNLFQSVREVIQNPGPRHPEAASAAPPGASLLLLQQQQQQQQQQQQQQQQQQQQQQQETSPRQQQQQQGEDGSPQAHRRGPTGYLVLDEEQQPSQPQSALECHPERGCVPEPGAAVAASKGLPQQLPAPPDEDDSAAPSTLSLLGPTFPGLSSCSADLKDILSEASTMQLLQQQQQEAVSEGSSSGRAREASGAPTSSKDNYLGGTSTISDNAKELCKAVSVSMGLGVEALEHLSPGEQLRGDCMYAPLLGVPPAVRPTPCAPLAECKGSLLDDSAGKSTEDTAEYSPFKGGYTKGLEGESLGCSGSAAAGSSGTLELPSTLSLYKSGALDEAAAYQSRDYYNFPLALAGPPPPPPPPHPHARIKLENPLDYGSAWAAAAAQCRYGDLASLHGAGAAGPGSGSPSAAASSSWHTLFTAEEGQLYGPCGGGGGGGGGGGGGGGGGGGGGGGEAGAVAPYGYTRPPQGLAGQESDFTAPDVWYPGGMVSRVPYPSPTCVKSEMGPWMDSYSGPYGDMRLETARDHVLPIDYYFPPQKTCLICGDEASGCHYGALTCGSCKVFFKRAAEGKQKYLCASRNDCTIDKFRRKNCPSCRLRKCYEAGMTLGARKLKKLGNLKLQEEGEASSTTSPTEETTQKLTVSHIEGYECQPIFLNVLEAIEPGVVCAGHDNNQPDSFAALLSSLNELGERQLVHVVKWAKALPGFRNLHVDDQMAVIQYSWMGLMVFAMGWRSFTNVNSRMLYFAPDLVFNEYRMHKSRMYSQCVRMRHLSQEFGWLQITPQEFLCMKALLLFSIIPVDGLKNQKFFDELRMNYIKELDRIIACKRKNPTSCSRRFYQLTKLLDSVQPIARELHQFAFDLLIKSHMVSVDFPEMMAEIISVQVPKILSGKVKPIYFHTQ

LNCaP95 xenografts [2] = test: Immunohistochemistry of harvested xenografts; type: in vivo, mice
[3] = test system: mTOR and AR pathways in LNCaP95 cells; test: Western blot analysis of mTOR and AR pathways in LNCaP95 cells; type: cell-based, human; settings: for expression of UBE2C / pS6 levels: enzalutamide 10 uM; for pS6 levels: regardless of androgen status; for BEZ-235-increased protein levels of FL-AR, AR-V7 and PSA: elevations caused by BEZ-235 15 nM, LNCaP95 and LNCaP cells
Experimental: Cells were harvested and whole-cell lysate (10 to 15 ug) was subjected to SDS-PAGE. Antibodies used were: AR (1:1000; Santa Cruz), AR-V7 (1:400; Precision), p110α (1:500; BD Bioscience), p110β (1:1000; abcam), […] (1:1000; abcam), p110δ (1:1000; abcam), UBE2C (Boston Biochem; 1:1000), PTEN (1:1000), pS6 (1:2000), pAktThr308 (1:1000), pAktSer473 (1:2000), p4EBP1 (1:1000), total-Akt (1:1000), total-S6 (1:1000), total-4EBP1 (1:1000), pERK/MAPK (1:1000), total-ERK/MAPK (1:1000) from Cell Signaling technology (Danvers, Mass.). β-actin (1:10,000, Abcam) was used as a loading control.
Protein levels of PSA were undetectable in LNCaP95 cells.

[4] = test system: mTOR and AR pathways in parental LNCaP cells; test: Western blot analysis of mTOR and AR pathways in parental LNCaP cells; type: cell-based, human; settings: parental LNCaP cells, R1881 1 nM
[5] = test system: genes regulated by FL-AR and AR-V7 in LNCaP95 cells; test: Gene expression analysis (quantitative real-time RT-PCR) in LNCaP95 cells; type: cell-based, human
[6] = harvested tumors, Compound A 100 mg/kg, BEZ-235 5 mg/kg
[7] = LNCaP95 cells, Compound A 25 uM
[8] = absence of androgen, with BEZ-235
[9] = in response to androgen, Compound A 35 uM

## CC(C)(c1ccc(OC[C@H](O)CO)cc1)c1ccc(OC[C@H](O)CCl)cc1 [Compound A]
AR NTD
  AR-NTD transactivation induced by IL-6: significantly inhibited
LNCaP95 xenografts [1]; harvested tumors, normalized to total 4EBP1
  levels of p4EBP1: no significant change
LNCaP95 xenografts [1]; harvested tumors, normalized to total Akt
  levels of pAkt: no significant change
LNCaP95 xenografts [1]; [6]
  protein levels of UBE2C: reduced
  protein levels of pS6: reduced
LNCaP95 xenografts [1]; in vivo, monotherapies
  protein levels of FKBP5: reduced
LNCaP95 cells
  proliferation (BrdU incorporation): inhibited
AR
  BEZ-235-increased PSA-, ARR3- and PB-luciferase activities: blocked
LNCaP95 xenografts [2]
  apoptosis (TUNEL staining): increased
  proliferation (Ki67 staining): significantly decreased
LNCaP95 xenografts [2]; immunohistochemistry
  UBE2C staining: reduced
  pS6 staining: reduced
[3]; [7]
  expression of UBE2C: markedly reduced
  pS6 levels: reduced
[3]; LNCaP95 cells, presence of androgen (R1881 1 nM), Compound A 25 uM
  levels of FKBP5: no effect
[3]
  BEZ-235-increased protein levels of FL-AR, AR-V7 and PSA: at least in part attenuated
[4]
  androgen-induced FKBP5: poor inhibitor
  androgen-induced levels of PSA: comparable to enzalutamide
[5]; absence of androgen
  transcript levels of AR-V7 target genes (UBE2C, CDC20, Akt1): consistently reduced
[5]; [8]
  BEZ-235-induced increase in transcript levels of AR-V7: blocked
  BEZ-235-induced levels of PSA transcript: blocked
[5]; [9]
  expression of FKBP5: inhibited
  expression of KLK3: inhibited
  expression of TMPRSS2: inhibited
[5]; monotherapy, regardless of androgen
  UBE2C levels: attenuated

## CNC(=O)c1ccc(N2C(=S)N(c3ccc(C#N)c(C(F)(F)F)c3)C(=O)C2(C)C)cc1F [enzalutamide, 4-(3-(4-cyano-3-(trifluoromethyl)phenyl)-5,5-dimethyl-4-oxo-2-thioxoimidazolidin-1-yl)-2-fluoro-N-methylbenzamide]
[3]; [7]
  expression of UBE2C: not
  pS6 levels: decreased
[3]
  BEZ-235-increased protein levels of FL-AR, AR-V7 and PSA: at least in part attenuated
[4]
  androgen-induced levels of PSA: blocking

## CO[C@H]1C[C@@H]2CC[C@@H](C)[C@@](O)(O2)C(=O)C(=O)N2CCCC[C@H]2C(=O)O[C@H]([C@H](C)C[C@@H]2CC[C@@H](OCCO)[C@H](OC)C2)CC(=O)[C@H](C)/C=C(\C)[C@@H](O)[C@@H](OC)C(=O)[C@H](C)C[C@H](C)/C=C/C=C/C=C/1C [everolimus]
LNCaP95 cells
  proliferation (BrdU incorporation): inhibited
[3]; LNCaP95 cells, BEZ-235 15 nM, everolimus
  pAkt: without decreasing
[3]; LNCaP95 cells, absence of androgen, everolimus
  levels of UBE2C: reduced
[3]; LNCaP95 cells, titration experiments
  protein levels of FL-AR: increased
[3]; LNCaP95 cells, titration, BEZ-235 15 nM, everolimus 10 nM
  pS6 ribosomal protein: reduced
